Molecules are shown by their SMILES.

This test has as its target T1, STAT6 (Homo sapiens, UniProt P42226).
T1 construct: stably transfected HaCaT keratinocyte cell line, which expresses NanoLuc luciferase reporter gene under the transcriptional control of the STAT6 responsive promoter; endogenous in cells; host or cells: HaCaT keratinocyte reporter cell line (stably transfected with a NanoLuc reporter)
T1 sequence (P42226 1-847): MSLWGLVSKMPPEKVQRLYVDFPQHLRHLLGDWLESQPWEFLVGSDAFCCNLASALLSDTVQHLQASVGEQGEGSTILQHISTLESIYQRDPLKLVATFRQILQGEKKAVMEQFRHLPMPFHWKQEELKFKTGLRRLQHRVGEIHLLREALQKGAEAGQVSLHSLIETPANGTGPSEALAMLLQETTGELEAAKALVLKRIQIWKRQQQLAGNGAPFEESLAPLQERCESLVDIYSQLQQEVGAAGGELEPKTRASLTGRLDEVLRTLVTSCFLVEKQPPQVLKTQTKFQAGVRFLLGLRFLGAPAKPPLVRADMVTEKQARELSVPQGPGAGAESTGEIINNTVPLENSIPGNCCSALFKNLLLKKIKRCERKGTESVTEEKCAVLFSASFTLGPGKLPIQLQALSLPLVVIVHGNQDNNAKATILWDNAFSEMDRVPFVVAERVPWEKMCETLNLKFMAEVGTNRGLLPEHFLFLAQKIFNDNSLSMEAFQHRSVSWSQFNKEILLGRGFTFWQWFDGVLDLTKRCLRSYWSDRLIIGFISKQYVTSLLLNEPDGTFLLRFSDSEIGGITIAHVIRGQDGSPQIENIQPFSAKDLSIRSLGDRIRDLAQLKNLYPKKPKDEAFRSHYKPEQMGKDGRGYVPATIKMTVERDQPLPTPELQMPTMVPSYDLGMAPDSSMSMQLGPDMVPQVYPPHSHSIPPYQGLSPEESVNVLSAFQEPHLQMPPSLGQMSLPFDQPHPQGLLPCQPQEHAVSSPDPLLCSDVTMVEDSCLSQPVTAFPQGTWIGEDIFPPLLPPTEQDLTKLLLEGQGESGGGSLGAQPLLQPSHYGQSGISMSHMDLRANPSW
Kind of test: STAT6 Reporter Luciferase Assay (IL-13 stimulated HaCaT keratinocyte NanoLuc reporter cells). Format: cell-based. Particulars: IL-13 stimulated HaCaT STAT6 NanoLuc reporter cells; read-out: Reporter EC50. The gist of the method:
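Cells were plated overnight, washed, exposed to compound for two hours, stimulated with IL-13 (0.12 nM final) for four hours at 37 °C, and then lysed with Nano-Glo substrate for 15 min before luminescence reading.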
As to `COC[C@@H]1CCCN1C(=O)c1ccc(N2CCc3c(c(C(=O)NCc4ccc(NC(=O)N(C)C)cc4)nn3C(C)C)C2)nc1` [Example 209, (S)-N-(4-(3,3-dimethylureido)benzyl)-1-isopropyl-5-(5-(2-(methoxymethyl)pyrrolidine-1-carbonyl)pyridin-2-yl)-4,5,6,7-tetrahydro-1H-pyrazolo[4,3-c]pyridine-3-carboxamide], the half-maximal effective concentration (EC50) (commonly the concentration giving half of the maximal effect) came to 692 nM.

As to `CC(C)n1nc(C(=O)NCc2ccc(NC(=O)N(C)C)cc2)c2c1CCN(c1ccc(C(=O)N3CC(C#N)C3)cn1)C2` [Example 210, 5-(5-(3-cyanoazetidine-1-carbonyl)pyridin-2-yl)-N-(4-(3,3-dimethylureido)benzyl)-1-isopropyl-4,5,6,7-tetrahydro-1H-pyrazolo[4,3-c]pyridine-3-carboxamide], the 50% effective concentration (EC50) turned out to be 1060 nM.

In the case of `CC(=O)N[C@@H]1CCN(C(=O)c2ccc(N3CCc4c(c(C(=O)NCc5ccc(NC(=O)N(C)C)cc5)nn4C(C)C)C3)nc2)C1` [Example 211, (R)-5-(5-(3-acetamidopyrrolidine-1-carbonyl)pyridin-2-yl)-N-(4-(3,3-dimethylureido)benzyl)-1-isopropyl-4,5,6,7-tetrahydro-1H-pyrazolo[4,3-c]pyridine-3-carboxamide], the half-maximal effective concentration (EC50) came out at 934 nM.

For `CC(C)n1nc(C(=O)NCc2ccc(NC(=O)N(C)C)cc2)c2c1CCN(c1ccc(C(=O)N3C[C@H]4C[C@@H](C3)O4)cn1)C2` [Example 212, 5-(5-((1R,5S)-6-oxa-3-azabicyclo[3.1.1]heptane-3-carbonyl)pyridin-2-yl)-N-(4-(3,3-dimethylureido)benzyl)-1-isopropyl-4,5,6,7-tetrahydro-1H-pyrazolo[4,3-c]pyridine-3-carboxamide], the concentration for a half-maximal effect (EC50) came to 278 nM.

As for `CCN(CC(=O)NC)C(=O)c1ccc(N2CCc3c(c(C(=O)NCc4ccc(NC(=O)N(C)C)cc4)nn3C(C)C)C2)nc1` [Example 213, N-(4-(3,3-dimethylureido)benzyl)-5-(5-(ethyl(2-(methylamino)-2-oxoethyl)carbamoyl)pyridin-2-yl)-1-isopropyl-4,5,6,7-tetrahydro-1H-pyrazolo[4,3-c]pyridine-3-carboxamide], the EC50 was 718 nM.

Turning to `CC(C)n1nc(C(=O)NCc2ccc(NC(=O)N(C)C)cc2)c2c1CCN(c1ccc(C(=O)N3CCNC(=O)CC3)cn1)C2` [Example 214, N-(4-(3,3-dimethylureido)benzyl)-1-isopropyl-5-(5-(5-oxo-1,4-diazepane-1-carbonyl)pyridin-2-yl)-4,5,6,7-tetrahydro-1H-pyrazolo[4,3-c]pyridine-3-carboxamide], the EC50 amounted to 502 nM.

For the compound `CC(C)n1nc(C(=O)NCc2ccc(NC(=O)N(C)C)cc2)c2c1CCN(c1ccc(C(=O)N3CC(O)C3)cn1)C2` [Example 215, N-(4-(3,3-dimethylureido)benzyl)-5-(5-(3-hydroxyazetidine-1-carbonyl)pyridin-2-yl)-1-isopropyl-4,5,6,7-tetrahydro-1H-pyrazolo[4,3-c]pyridine-3-carboxamide], the half-maximal effective concentration (EC50) came out at 276 nM.

In the case of `CO[C@@H]1CCN(C(=O)c2ccc(N3CCc4c(c(C(=O)NCc5ccc(NC(=O)N(C)C)cc5)nn4C(C)C)C3)nc2)C1` [Example 216, (R)-N-(4-(3,3-dimethylureido)benzyl)-1-isopropyl-5-(5-(3-methoxypyrrolidine-1-carbonyl)pyridin-2-yl)-4,5,6,7-tetrahydro-1H-pyrazolo[4,3-c]pyridine-3-carboxamide], the EC50 came out at 546 nM.

In the case of `CC(C)n1nc(C(=O)NCc2ccc(NC(=O)N(C)C)cc2)c2c1CCN(c1ccc(C(=O)N3CCNC(=O)C3(C)C)cn1)C2` [Example 217, 5-(5-(2,2-dimethyl-3-oxopiperazine-1-carbonyl)pyridin-2-yl)-N-(4-(3,3-dimethylureido)benzyl)-1-isopropyl-4,5,6,7-tetrahydro-1H-pyrazolo[4,3-c]pyridine-3-carboxamide], the EC50 stood at 272 nM.

As to `CC(C)n1nc(C(=O)NCc2ccc(NC(=O)N(C)C)cc2)c2c1CCN(c1ccc(C(=O)N3CCC[C@@H]3C(N)=O)cn1)C2` [Example 218, (R)-5-(5-(2-carbamoylpyrrolidine-1-carbonyl)pyridin-2-yl)-N-(4-(3,3-dimethylureido)benzyl)-1-isopropyl-4,5,6,7-tetrahydro-1H-pyrazolo[4,3-c]pyridine-3-carboxamide], the EC50 worked out at 2380 nM.

Regarding `CC(C)n1nc(C(=O)NCc2ccc(NC(=O)N(C)C)cc2)c2c1CCN(c1ccc(C(=O)N3CCCNC(=O)C3)cn1)C2` [Example 221, N-(4-(3,3-dimethylureido)benzyl)-1-isopropyl-5-(5-(3-oxo-1,4-diazepane-1-carbonyl)pyridin-2-yl)-4,5,6,7-tetrahydro-1H-pyrazolo[4,3-c]pyridine-3-carboxamide], the EC50 came to 227 nM.

Consider `CNC(=O)[C@@H]1CCCN1C(=O)c1ccc(N2CCc3c(c(C(=O)NCc4ccc(NC(=O)N(C)C)cc4)nn3C(C)C)C2)nc1` [Example 222, (S)-N-(4-(3,3-dimethylureido)benzyl)-1-isopropyl-5-(5-(2-(methylcarbamoyl)pyrrolidine-1-carbonyl)pyridin-2-yl)-4,5,6,7-tetrahydro-1H-pyrazolo[4,3-c]pyridine-3-carboxamide], for which the EC50 is 1480 nM.

`CC(C)n1nc(C(=O)NCc2ccc(NC(=O)N(C)C)cc2)c2c1CCN(c1ccc(C(=O)N3CCNC(=O)C3)cn1)C2` [Example 223, N-(4-(3,3-dimethylureido)benzyl)-1-isopropyl-5-(5-(3-oxopiperazine-1-carbonyl)pyridin-2-yl)-4,5,6,7-tetrahydro-1H-pyrazolo[4,3-c]pyridine-3-carboxamide]: the concentration for a half-maximal effect (EC50) stood at 201 nM.

Turning to `CC(=O)N1CCN(C(=O)c2ccc(N3CCc4c(c(C(=O)NCc5ccc(NC(=O)N(C)C)cc5)nn4C(C)C)C3)nc2)CC1` [Example 224, 5-(5-(4-acetylpiperazine-1-carbonyl)pyridin-2-yl)-N-(4-(3,3-dimethylureido)benzyl)-1-isopropyl-4,5,6,7-tetrahydro-1H-pyrazolo[4,3-c]pyridine-3-carboxamide], the EC50 turned out to be 163 nM.

On to `COC[C@H]1CCCN1C(=O)c1ccc(N2CCc3c(c(C(=O)NCc4ccc(NC(=O)N(C)C)cc4)nn3C(C)C)C2)nc1` [Example 225, (R)-N-(4-(3,3-dimethylureido)benzyl)-1-isopropyl-5-(5-(2-(methoxymethyl)pyrrolidine-1-carbonyl)pyridin-2-yl)-4,5,6,7-tetrahydro-1H-pyrazolo[4,3-c]pyridine-3-carboxamide], for which the EC50 was 644 nM.

On to `COC1(C)CN(C(=O)c2ccc(N3CCc4c(c(C(=O)NCc5ccc(NC(=O)N(C)C)cc5)nn4C(C)C)C3)nc2)C1` [Example 226, N-(4-(3,3-dimethylureido)benzyl)-1-isopropyl-5-(5-(3-methoxy-3-methylazetidine-1-carbonyl)pyridin-2-yl)-4,5,6,7-tetrahydro-1H-pyrazolo[4,3-c]pyridine-3-carboxamide], for which the half-maximal effective concentration (EC50) was determined as 1930 nM.

With `CC(C)n1nc(C(=O)NCc2ccc(NC(=O)N(C)C)cc2)c2c1CCN(c1ccc(C(=O)N3C[C@@H]4C[C@H]3C(=O)N4)cn1)C2` [Example 227, N-(4-(3,3-dimethylureido)benzyl)-1-isopropyl-5-(5-((1S,4S)-6-oxo-2,5-diazabicyclo[2.2.1]heptane-2-carbonyl)pyridin-2-yl)-4,5,6,7-tetrahydro-1H-pyrazolo[4,3-c]pyridine-3-carboxamide], the EC50 was greater than 6120 nM.
